Source: patent publication US9511074B2, “Methods of treating disorders associated with protein polymerization” (UNIVERSITY OF PITTSBURGH—OF THE COMMONWEALTH SYSTEM OF …, priority 2009, dated 2016)
Residues, ends and D or L forms follow the SMILES beside them. *: point of attachment. Cbz = O=C(OCc1ccccc1)*

How the values were obtained:
[1] = tested on: ATZ in the HTO/Z cell line; test: Steady state levels of ATZ in the HTO/Z cell line (immunoblot of insoluble and soluble fractions); type: cell-based, human; conditions: HTO/Z cells
Text: Cell Lines The human epidermal HeLa cell line with doxycycline-regulated expression of ATZ (HTO/Z) has been described previously (1). HTO/M and HTO/Saar are HeLa cell lines with doxycycline-regulated expression of wild type AT and the AT Saar variant, respectively (1). A murine embryonic fibroblast cell line (MEF) with targeted disruption of Atg5 (2) was engineered for stable expression of ATZ using the previously described pRc/RSV-ATZ expression plasmid (3). A wild type MEF cell line was also engineered for stable expression of ATZ in the same way to serve as control. For experiments with CBZ, the inducible cell lines were cultured in the absence of doxycycline for at least 4 weeks for maximal expression of AT. The cells were then subcultured into separate monolayers in fresh complete growth medium and incubated for 48 hours in the absence or presence of CBZ or rapamycin (RAP). CBZ or RAP were added to the growth medium. The duration of incubation with CBZ was determined to be optimal at 48 hours based on experiments in which the duration was varied from 12 to 72 hours. Doses of CBZ were based on previous studies of its effects in cell lines (5,6). Doses of RAP were based on previous positive effects on autophagic disposal of polyglutamine-repeat proteins (7). After the incubation cells were homogenized and cell homogenates separated into insoluble and soluble fractions according to our previously established technique (8). Samples of 20 μgs each were subjected to immunoblot analysis for AT, BiP and GAPDH.
(§1) For immunoblot analysis to detect AT, GAPDH or LC3, cells were lysed in 50 mM Tris-HCl, 150 mM NaCl, 1% NP-40, pH 8.0. Protein levels were quantified using the BCA protein assay (Pierce Biotechnology, Rockford, Ill.). 10-50 μg samples were loaded onto 7.5% precast gels. PVDF membranes were blocked in TBS, 0.5% Tween 20 (TBST), 5% milk and then incubated with primary antibody in 5% milk TBST solution. Horseradish peroxidase anti-goat Ig or anti-mouse Ig (Jackson Labs, Bar Harbor, Me.) were used as secondary antibodies in TBST. Blots were visualized with Super Signal West Dura or West Femto from Pierce.

ATZ in the liver = test: Hepatic load of ATZ in vivo in PiZ×GFP-LC3 mice (immunoblot, globule histology); set-up: species or system mouse; conditions: PiZ mice, 2 mg/kg/day intraperitoneal for 2 weeks, FIG. 5C
Text: Transgenic Mice PiZ mice that have been bred into the C57/BL6 background have been described previously (1). For the second and third series of experiments with CBZ we used PiZ mice that were re-derived onto the FVB/N background for a move into a new animal facility. The transgene that was used to generate the PiZ mouse is a genomic fragment of DNA that contains the coding regions of the ATZ gene together with introns and ˜2 kilobases of upstream and downstream flanking regions (10). […] In this perspective it is not an exact phenocopy of the classical form of AT deficiency. In particular it cannot be a model for the loss-of-function mechanisms associated with the classical form of AT deficiency. It is known to have abundant expression of ATZ in hepatocytes and other cell types that express ATZ in humans (11). In the liver there are abundant ATZ-containing intrahepatocytic globules and inflammation that is characteristic of what is seen in the human liver (11,12). […] Taken together, these observations indicate that the PiZ mouse is an appropriate model for the gain-of-toxic function mechanism that is responsible for liver damage in the classical form of AT deficiency. Indeed, the fact that these mice are endowed with endogenous AT function and therein normal levels of AT in the serum and body fluids make them an even more ‘pure’ model for liver damage by gain-of-toxic function. PiZ×GFP-LC3 mice, which generated green fluorescent autophagosomes, have been described previously (2). PiZ×IKKβ.hep were generated by mating of PiZ to IKKβ.hep, which has conditional hepatocyte-specific disruption of NF.B activation (M. Karin, 17). There is increased injury in the liver of these mice as evidenced by the hepatic hydroxyproline content, 153.3% of that in the PiZ mouse (FIG. 7).
Histology Sections of liver tissue were stained with hematoxylin and eosin, PAS, PAS after diastase treatment, TUNEL, PCNA, Ki67 and Sirius Red using standard techniques (18). Previous methods for staining with antibody to smooth muscle actin were used (19). Each was examined by the pathologist (GM) who was completely blinded to the experimental protocol. […] The number of inflammatory nodules, AT-containing globules and autophagosomes were each quantified blindly by counting cells in 6 microscopic fields of 10 different sections for each liver. The number of nuclei, as determined by Hoechst staining, was used to exclude the possibility that different numbers of cells were counted in liver sections from mice treated with CBZ as compared to controls. Hepatic hydroxyproline concentration was determined by a well-established protocol (20,21). […]
For immunoblot on liver, the liver was snap frozen in liquid nitrogen and stored at −80° C. […] Total protein concentration was measured by BCA assay (Pierce). […]

[2] = tested on: ATZ in the HTO/Z cell line; test: ATZ levels in HTO/Z cells in the presence of proteasomal inhibitors with or without CBZ; type: cell-based, human; conditions: for levels of ATZ with proteasomal inhibitor alone: no CBZ; for levels of insoluble ATZ in the presence of CBZ: proteasomal inhibitor added for last 6 hours
Description: For experiments in which proteasomal inhibitors were used, MG132 was used at 30 μM and lactacystin at 10 μM for the last 6 hours of the incubation with CBZ or control. Cells that were incubated with MG132 or lactacystin alone served as control to validate that the proteasome was inhibited. For investigation of LC3 conversion, lysosomal inhibitors (E64D and pepstatin A at 20 μg/ml) were added to the medium for the last 4 hours of the incubation with CBZ or control. […] If the number of separate experiments done in the cell line models is not specifically indicated in the text or figure legend, at least 3 separate experiments were done in each case.
as §1

[3] = 48 hours incubation, immunoblot

For NC(=O)N1c2ccccc2CC(=O)c2ccccc21 [OBZ, 10,11-dihydro-10-oxo-5H-dibenz[b,f]azepine-5-carboxamide], the “steady-state levels of ATZ, insoluble fraction” value [1, 3] was “marked decrease”, the “steady-state levels of ATZ, soluble fraction” value [1, 3] was “minimal effect” and the “lowest dose with evident effect on insoluble ATZ” value ([1]; 48 hrs, FIG. 9) was 0.1 µM.
For CO[C@H]1C[C@@H]2CC[C@@H](C)[C@@](O)(O2)C(=O)C(=O)N2CCCC[C@H]2C(=O)O[C@H]([C@H](C)C[C@@H]2CC[C@@H](O)[C@H](OC)C2)CC(=O)[C@H](C)/C=C(\C)[C@@H](O)[C@@H](OC)C(=O)[C@H](C)C[C@H](C)/C=C/C=C/C=C/1C [rapamycin], the “ATZ levels (insoluble and soluble fractions)” value ([1]; 48-hour incubation, FIG. 1B) was “no effect” and the “hepatic ATZ levels” value (ATZ in the liver) was “no effect”.
CC(C)C[C@@H](C=O)NC(=O)[C@H](CC(C)C)NC(=O)[C@H](CC(C)C)NC(=O)OCc1ccccc1 [MG132] (Cbz-Leu-Leu-Leu-aldehyde) was tested, and the “levels of ATZ with proteasomal inhibitor alone” value [2] was “Increased levels” and the “levels of insoluble ATZ in the presence of CBZ” value [2] was “no effect”.
CC(=O)N[C@@H](CSC(=O)[C@]1([C@@H](O)C(C)C)NC(=O)[C@H](C)[C@@H]1O)C(=O)O [lactacystin] was tested, and the “levels of ATZ with proteasomal inhibitor alone” value [2] was “Increased levels”, the “reversal of the effect of CBZ on levels of soluble ATZ” value ([2]; lactacystin 10 μM for last 6 hours of CBZ incubation, mean SD, n=3) was 23.1±14.0% and the “levels of insoluble ATZ in the presence of CBZ” value [2] was “no effect”.
